Experimental data: ChEMBL document CHEMBL3132836, “Structure-based drug design of chromone antagonists of the adenosine A2A receptor” (Medchemcomm, 2014)

Key:
[1] = molecular target: Adenosine receptor A2a (Homo sapiens, UniProt P29274); experiment: Displacement of [3H]ZM241385 from human adenosine A2A receptor expressed in HEK293 cells after 1 hr by liquid scintillation counting; assay type: cell-based
[2] = tested on: CHO; experiment: Selectivity ratio of Ki for human adenosine A1 receptor expressed in CHO cells to Ki for human adenosine A2A receptor expressed in HEK293 cells; assay type: cell-based
[3] = Half life in Sprague-Dawley rat liver microsomes at 3 uM by LC-MS analysis; assay type: ADME
[4] = molecular target: T1, Adenosine receptor A3 (Homo sapiens, UniProt P0DMS8); experiment: Displacement of [125I]AB-MECA from adenosine A3 receptor (unknown origin) expressed in CHO-K1 cells after 60 mins; assay type: cell-based
T1 sequence (P0DMS8 whole entry): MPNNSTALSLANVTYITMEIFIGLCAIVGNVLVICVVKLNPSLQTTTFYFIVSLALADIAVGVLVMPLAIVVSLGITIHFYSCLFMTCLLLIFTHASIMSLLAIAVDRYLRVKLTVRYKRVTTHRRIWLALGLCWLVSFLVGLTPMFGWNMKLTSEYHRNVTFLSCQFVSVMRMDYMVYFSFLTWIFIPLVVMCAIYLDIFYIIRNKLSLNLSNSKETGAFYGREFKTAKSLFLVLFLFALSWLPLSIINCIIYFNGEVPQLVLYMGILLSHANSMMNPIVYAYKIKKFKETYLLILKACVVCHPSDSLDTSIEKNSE

[5] = molecular target: T2, Adenosine receptor A2b (Homo sapiens, UniProt P29275); experiment: Displacement of [3H]MRS1754 from adenosine A2B receptor (unknown origin) expressed in HEK293 cells after 90 mins; assay type: cell-based
T2 sequence (P29275 whole entry): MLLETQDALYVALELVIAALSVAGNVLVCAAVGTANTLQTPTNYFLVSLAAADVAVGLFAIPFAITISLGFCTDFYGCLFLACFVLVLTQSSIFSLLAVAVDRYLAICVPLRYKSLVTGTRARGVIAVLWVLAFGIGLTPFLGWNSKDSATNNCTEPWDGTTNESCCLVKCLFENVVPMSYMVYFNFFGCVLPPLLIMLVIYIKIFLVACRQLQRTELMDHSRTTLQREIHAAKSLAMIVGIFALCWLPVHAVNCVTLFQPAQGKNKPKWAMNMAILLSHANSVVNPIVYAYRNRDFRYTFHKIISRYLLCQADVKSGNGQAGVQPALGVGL

[6] = molecular target: T3, Adenosine receptor A1 (Homo sapiens, UniProt P30542); experiment: Displacement of [3H]DPCPX from human adenosine A1 receptor expressed in CHO cells after 1 hr by liquid scintillation counting; assay type: cell-based
T3 sequence (P30542 whole entry): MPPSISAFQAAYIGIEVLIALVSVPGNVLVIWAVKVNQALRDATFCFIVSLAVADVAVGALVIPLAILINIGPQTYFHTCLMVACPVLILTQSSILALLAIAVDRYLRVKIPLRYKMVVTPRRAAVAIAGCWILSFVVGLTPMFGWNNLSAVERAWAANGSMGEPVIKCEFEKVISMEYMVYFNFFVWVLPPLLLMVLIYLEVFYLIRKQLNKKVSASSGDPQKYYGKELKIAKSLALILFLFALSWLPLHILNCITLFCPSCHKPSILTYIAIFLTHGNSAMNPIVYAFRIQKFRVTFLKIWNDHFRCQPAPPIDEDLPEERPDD

Chain of Adenosine receptor A2a (P29274 whole entry): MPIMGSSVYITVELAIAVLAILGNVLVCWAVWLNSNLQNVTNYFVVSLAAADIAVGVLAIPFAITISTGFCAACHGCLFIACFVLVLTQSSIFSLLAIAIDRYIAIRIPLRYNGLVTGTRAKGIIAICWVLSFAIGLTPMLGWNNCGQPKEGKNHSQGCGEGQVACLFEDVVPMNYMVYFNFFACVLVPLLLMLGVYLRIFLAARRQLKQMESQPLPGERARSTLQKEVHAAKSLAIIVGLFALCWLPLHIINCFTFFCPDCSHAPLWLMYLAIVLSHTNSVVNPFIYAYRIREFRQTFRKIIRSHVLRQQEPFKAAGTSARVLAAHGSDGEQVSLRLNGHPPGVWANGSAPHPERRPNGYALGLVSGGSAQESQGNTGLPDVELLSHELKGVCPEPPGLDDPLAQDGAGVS

C#CCCCOc1cc(C)c2c(=O)c(-c3nc(C)cs3)coc2c1
Ki ([1]; read-out: pKi (converted)): 25.1 nM

CCc1cc2c(=O)c(-c3nc(C)cs3)coc2cc1O
Ratio Ki [2]: > 100 | Ki ([1]; read-out: pKi (converted)): 79.4 nM

CC(=O)Oc1cc(C)c2c(=O)c(-c3nc(C)cs3)coc2c1
Ratio Ki [2]: 13 | Ki ([1]; read-out: pKi (converted)): 31.6 nM

CCCc1cc2c(=O)c(-c3csc(C)n3)coc2cc1O
Ki ([1]; read-out: pKi (converted)): 31.6 nM

CCc1cc2c(=O)c(-c3cscn3)coc2cc1O
Ki ([1]; read-out: pKi (converted)): 1580 nM

CCCCCc1cc2c(=O)c(-c3nc(C)cs3)coc2cc1O
Ratio Ki [2]: > 100 | Ki ([1]; read-out: pKi (converted)): 20 nM

CCOC(=O)COc1cc(C)c2c(=O)c(-c3nc(C)cs3)coc2c1
Ki ([1]; read-out: pKi (converted)): 100 nM

Cc1csc(-c2c(C)oc3cc(O)ccc3c2=O)n1
Ki ([1]; read-out: pKi (converted)): 7940 nM

CCc1cc2c(=O)c(-c3csc(C)n3)coc2cc1O
Ki ([1]; read-out: pKi (converted)): 50.1 nM

Cc1csc(-c2coc3cccc(C)c3c2=O)n1
half-life at 3 µM [3]: 14 min | Ki ([1]; read-out: pKi (converted)): 316 nM

Cc1csc(-c2coc3cc(OCC(=O)O)cc(C)c3c2=O)n1
Ki ([1]; read-out: pKi (converted)): 2000 nM

Cc1csc(-c2coc3cc(O)ccc3c2=O)n1
Ki ([1]; read-out: pKi (converted)): 2000 nM

CCOc1cc2occ(-c3nc(C)cs3)c(=O)c2cc1CC
half-life at 3 µM [3]: 16 min | IC50 [4]: > 10000 nM | Ki [4]: > 10000 nM | IC50 [5]: > 10000 nM | Ki [5]: > 10000 nM | Ki [6]: 5000 nM | Ki ([1]; read-out: Ki): 40 nM | Ki ([1]; read-out: pKi (converted)): 39.8 nM

Cc1csc(-c2coc3cc(OCC4CC4)cc(C)c3c2=O)n1
Ratio Ki [2]: > 100 | half-life at 3 µM [3]: 18 min | Ki ([1]; read-out: pKi (converted)): 79.4 nM

CCCc1cc2c(=O)c(-c3nc(C)cs3)coc2cc1O
Ki ([1]; read-out: pKi (converted)): 25.1 nM

Cc1csc(-c2coc3cc(OCCN(C)C)cc(C)c3c2=O)n1
Ki ([1]; read-out: pKi (converted)): 1580 nM
